{
  "source": "patent US20220411422A1",
  "about": "“ERBB RECEPTOR INHIBITORS” (Dizal (Jiangsu) Pharmaceutical Co., Ltd., priority 2018, published 2022)",
  "key": {"[1]": {"system": "Human Pgp/BCRP transporter", "experiment": "Human Pgp/BCRP transporter substrate assessment", "format": "in vitro ADME"}, "pHER2": {"target": "T1, pHER2 (Homo sapiens, UniProt P04626)", "T1 construct": "pHER2 in cells expressing HER2; endogenous in cells; host or cells: BT474c1", "T1 sequence (P04626 23-1255)": "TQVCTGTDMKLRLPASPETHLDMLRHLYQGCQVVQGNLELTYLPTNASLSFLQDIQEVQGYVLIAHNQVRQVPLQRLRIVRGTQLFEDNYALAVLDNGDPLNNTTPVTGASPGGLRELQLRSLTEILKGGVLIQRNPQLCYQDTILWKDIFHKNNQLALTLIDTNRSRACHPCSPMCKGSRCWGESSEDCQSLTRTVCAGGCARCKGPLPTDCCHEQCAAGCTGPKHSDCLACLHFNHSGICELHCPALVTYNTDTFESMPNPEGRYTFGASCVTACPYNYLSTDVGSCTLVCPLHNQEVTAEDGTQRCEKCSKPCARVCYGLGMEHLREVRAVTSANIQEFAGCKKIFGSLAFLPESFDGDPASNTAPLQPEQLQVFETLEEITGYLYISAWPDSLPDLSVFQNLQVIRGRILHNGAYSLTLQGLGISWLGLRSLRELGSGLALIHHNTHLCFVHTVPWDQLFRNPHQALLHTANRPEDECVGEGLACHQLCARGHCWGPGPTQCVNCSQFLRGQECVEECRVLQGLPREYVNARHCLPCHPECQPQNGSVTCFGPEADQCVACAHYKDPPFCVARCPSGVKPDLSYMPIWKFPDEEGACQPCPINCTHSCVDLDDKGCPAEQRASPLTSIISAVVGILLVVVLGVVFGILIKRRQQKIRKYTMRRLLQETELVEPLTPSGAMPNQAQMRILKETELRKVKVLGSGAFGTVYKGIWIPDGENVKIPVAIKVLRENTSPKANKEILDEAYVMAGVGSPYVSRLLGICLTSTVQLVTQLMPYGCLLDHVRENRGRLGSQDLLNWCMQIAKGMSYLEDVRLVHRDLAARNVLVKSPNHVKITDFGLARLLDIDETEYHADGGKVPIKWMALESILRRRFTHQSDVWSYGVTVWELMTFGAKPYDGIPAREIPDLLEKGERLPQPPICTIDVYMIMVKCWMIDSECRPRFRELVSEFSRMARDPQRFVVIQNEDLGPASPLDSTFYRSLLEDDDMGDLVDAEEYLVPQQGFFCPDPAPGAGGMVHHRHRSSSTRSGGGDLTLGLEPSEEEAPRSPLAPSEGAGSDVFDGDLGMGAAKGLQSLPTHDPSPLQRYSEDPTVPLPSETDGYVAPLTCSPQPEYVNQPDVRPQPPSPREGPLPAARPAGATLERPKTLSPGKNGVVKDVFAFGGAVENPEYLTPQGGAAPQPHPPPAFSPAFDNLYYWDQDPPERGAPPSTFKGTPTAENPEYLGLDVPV", "experiment": "pHER2 cellular activity in BT474c1 cell line", "format": "cell-based", "method": "(§1) A compound's activity of selective inhibition for HER2 wild type amplification can be evaluated with BT474 cell line (ATCC® HTB-20™). The cell line expressed phosphorylated HER2 protein and its proliferation depended on the amplified gene, which could be used for in vitro PD and anti-proliferation assays.\nThe compounds' inhibition of target modulation were determined as follows: BT474 cells were sorted in 96 well plates (20000 cells/well) with the DMEM medium containing 10% FBS overnight and then treated with tested compounds at a series of concentrations (3 μM, 0.3 μM, 0.1 μM, 0.03 μM, 0.01 μM, 0.003 μM, 0.001 μM, 0.0001 μM). The plates were incubated for 4 h at 37° C. with 5% CO2 and then the HER2 (Y1248) phosphorylation level of cells in each well were measured with MSD Kit (Phospho-ErbB2 (Tyr1248) Assay Whole Cell Lysate Kit: Cat #K151CLD-3). The assay is a electrochemiluminescent method (MESO SCALE DISCOVERY) for determining both phosphorylated and total HER2 of cells with an MSD SECTOR® Imager and then the ratio of p-HER2/total HER2 can be generated by the machine. The percentage of inhibition was got from formula: % inhibition=100×[1−(ratio of sample well−ratio of Min ctrl well)/(ratio of Max−Ratio of Min ctrl well)]. The IC50 values were further calculated as the compounds concentration required for 50% inhibition in best-fit curves using Prism GraphPad 7.0 or Microsoft Xlfit software."}, "pHER2 in tumor tissue": {"target": "T2, pHER2 in tumor tissue (Homo sapiens, UniProt P04626)", "T2 construct": "The SC, BM and LM models with HER2 overexpression; from tissue; host or cells: BT474cl subcutaneous xenograft tumour in mice", "T2 sequence (P04626 23-1255)": "as above", "experiment": "PK/PD relationship in BT474cl SC model", "format": "in vivo, mouse", "method": "The SC, BM and LM models with HER2 overexpression were treated with the Compound 6 at dosages of 25 mg/kg, 50 mg/kg, 100 mg/kg and 150 mg/kg. […] Moreover, the Compound 6 at dosages of 6.25 mg/kg, Capecitabine (400 mg/kg), T-DM1 (15 mg/kg), Compound 6 (6.25 mg/kg) in combination with Capecitabine (400 mg/kg) or T-DM1 (15 mg/kg) were used to treat the SC, and BM models with HER2 overexpression to check the tumor regression effect of Compound 6 in combination with other anti-cancer agent. […] Moreover, the PK and PD of Compound 6 in BT474cl SC model were tested."}, "wild type EGFR": {"target": "T3, wild type EGFR (Homo sapiens, UniProt P00533)", "T3 construct": "which expresses wild type EGFR protein; endogenous in cells; host or cells: A431", "T3 sequence (P00533 25-1210)": "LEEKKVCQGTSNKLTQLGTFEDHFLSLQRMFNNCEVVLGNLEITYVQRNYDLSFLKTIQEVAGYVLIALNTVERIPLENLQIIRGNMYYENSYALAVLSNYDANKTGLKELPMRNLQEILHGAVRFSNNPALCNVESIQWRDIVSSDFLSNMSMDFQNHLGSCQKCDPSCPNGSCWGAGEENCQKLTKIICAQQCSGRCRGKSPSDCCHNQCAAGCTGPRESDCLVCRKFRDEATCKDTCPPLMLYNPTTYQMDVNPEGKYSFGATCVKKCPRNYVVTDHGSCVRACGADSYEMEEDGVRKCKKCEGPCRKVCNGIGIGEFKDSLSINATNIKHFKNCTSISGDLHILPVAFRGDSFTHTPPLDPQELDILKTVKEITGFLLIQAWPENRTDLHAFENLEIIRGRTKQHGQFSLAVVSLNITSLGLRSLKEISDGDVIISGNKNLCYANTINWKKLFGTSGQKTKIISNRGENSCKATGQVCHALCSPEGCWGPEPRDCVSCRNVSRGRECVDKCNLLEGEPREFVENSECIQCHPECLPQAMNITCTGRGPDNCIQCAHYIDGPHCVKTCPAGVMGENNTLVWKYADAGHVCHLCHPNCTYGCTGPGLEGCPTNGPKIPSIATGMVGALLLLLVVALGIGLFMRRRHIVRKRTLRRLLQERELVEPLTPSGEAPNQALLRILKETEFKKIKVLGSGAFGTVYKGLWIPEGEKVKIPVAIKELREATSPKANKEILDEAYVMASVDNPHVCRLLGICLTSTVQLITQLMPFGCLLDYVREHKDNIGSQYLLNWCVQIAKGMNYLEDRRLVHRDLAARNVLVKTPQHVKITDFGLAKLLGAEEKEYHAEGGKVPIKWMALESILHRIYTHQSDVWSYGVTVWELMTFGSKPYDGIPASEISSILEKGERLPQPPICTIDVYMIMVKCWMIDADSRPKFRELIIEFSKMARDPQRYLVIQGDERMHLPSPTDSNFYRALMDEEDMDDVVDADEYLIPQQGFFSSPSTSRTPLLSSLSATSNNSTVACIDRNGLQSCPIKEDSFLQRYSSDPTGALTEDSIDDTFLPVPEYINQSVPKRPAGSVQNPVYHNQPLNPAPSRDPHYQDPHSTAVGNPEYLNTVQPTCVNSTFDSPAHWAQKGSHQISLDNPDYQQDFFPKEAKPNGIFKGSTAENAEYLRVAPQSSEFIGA", "experiment": "pEGFR cellular activity in A431 cell line", "format": "cell-based", "method": "A compound's activity of inhibition for EGFR WT can be evaluated with NCI-H838 (ATCC® CRL-5844™) and A431 cell line (the epidermoid carcinoma cell line A-431), which expresses wild type EGFR protein as the count screening to define the selectivity of the compound.\nThe compounds' inhibition of target modulation were determined as follows: NCI-H838 cells and A431 cells were sorted in 96 well plates (20000 cells/well) with the DMEM medium containing 1% FBS overnight and then treated with tested compounds at a series of concentrations (3 μM, 0.3 μM, 0.1 μM, 0.03 μM, 0.01 μM, 0.003 μM, 0.001 μM, 0.0001 μM). The plates were incubated for 4 h at 37° C. with 5% CO2 followed by the stimulation of recombinant hEGF (100 ng/ml for 10 Min, RD, Cat #236-EG) and then the EGFR (Y1068) phosphorylation level of cells in each well were measured with MSD Kit (MULTI-SPOT®96 4-Spot HB Prototype EGFR Triplex […]: pEGFR (Tyr1068), pEGFR (Tyr1173), Total EGFR (Cat #N45ZB-1). The assay is a electrochemiluminescent method (MESO SCALE DISCOVERY) for determining both phosphorylated and total EGFR of cells with an MSD SECTOR® Imager and then the ratio of p-EGFR/total EGFR can be generated by the machine. The percentage of inhibition was used the formula: % inhibition=100×[1−(ratio of sample well−ratio of Min ctrl well)/(ratio of Max−Ratio of Min ctrl well)]. […]"}, "[2]": {"system": "BT474 SC, BM and LM xenograft models", "experiment": "In vivo anti-tumor potency in SC, BM and LM xenograft mouse models"}, "BT474 cells": {"system": "BT474 cells", "experiment": "BT474 anti-proliferation assay, MTS", "format": "cell-based", "settings": "Homo sapiens, BT-474, 72 h, read-out: HER2WT Amplification BT474 GI50", "method": "as §1\nThe anti-proliferation activity of compounds were determined as following procedure: The BT474 cells were sorted in 384 well plates with the DMEM medium containing 10% FBS and […] overnight and then dosed with tested compounds at a series of concentrations (30 μM, 10 μM, 3 μM, 1 μM, 0.3 μM, 0.1 μM, 0.03 μM, 0.01 μM, 0.001 μM) on next day. Meanwhile, another cells plate was prepared for measuring G0 value on next day. The dosed plates were incubate for 72 h at 37° C. with 5% CO2 and the number of viable cells in each well of G0 or dosed plates were measured by MTS (CellTiter 96® AQueous One Solution Cell Proliferation Assay, Promega) endpoint. This assay is a colorimetric method for determining the number viable cells in the proliferation assay. Detection reagents (5 μl) was dispensed into per well, and the plates were incubated for 2 hrs at room temperature. Then, absorbance at 490 nm and 650 nm (reference wavelength) in each well was measured using the safile II. (Tecan). […]"}},
  "note": "pIC50: −log10 of the molar value. “Also recorded” adds a separate entry of the source.",
  "data": [
    {"compound": "COc1cc(O[C@H]2CCN(C)CC2(F)F)c2c(Nc3ccc(Oc4ccn5ncnc5c4)c(C)c3)ncnc2c1", "note": "(single isomer, unassigned) [Compound 6]", "values": [
      {"measurement": "Human Pgp/BCRP transporter substrate", "setting": "[1]", "value": "No"},
      {"measurement": "selectivity between pHER2 in cells expressing HER2 and pEGFR in cells expressing wild type EGFR", "setting": "pHER2", "value": "over 300 fold"},
      {"measurement": "pIC50", "setting": "pHER2; BT474c1 cell line", "value": 8.36},
      {"measurement": "relationship between plasma concentration and pHER2 inhibition in tumor tissue", "setting": "pHER2 in tumor tissue", "value": "positive correlation"},
      {"measurement": "pIC50", "setting": "wild type EGFR", "value": 5.84},
      {"measurement": "anti-tumor activity compared to Tucatinib, Neratinib and Pyrotinib", "setting": "[2]; BM and LM models", "value": "superior to Tucatinib, Neratinib and Pyrotinib"},
      {"measurement": "anti-tumor activity, monotherapy", "setting": "[2]; BT474 SC, BM and LM xenograft models, 25-150 mg/kg", "value": "potent anti-tumor activity; also recorded: profound tumor regression"},
      {"measurement": "anti-tumor activity compared to Tucatinib, Neratinib and Pyrotinib", "setting": "[2]; SC model", "value": "comparable to them"},
      {"measurement": "GI50", "setting": "BT474 cells", "value": "~20", "unit": "nM"}
    ]}
  ]
}
